Results taken from ChEMBL document CHEMBL6103552, “Identification of peptide-based hepatitis B virus capsid inhibitors based on the viral core protein” (Bioorg Med Chem Lett, 2025).
Active and inactive are the calls of the source. No rule for the calls is given here.

biological target: Core antigen (Hepatitis B virus) (UniProt Q03732); assay: Inhibition of Hepatitis B virus capsid formation at 100 uM treated during cell-free wild type HBV Cp synthesis using wheat germ lysates and HBV Cp RNA by Native capsid assay based western blot analysis; type: subcellular
Sequence (Q03732 as listed by the source): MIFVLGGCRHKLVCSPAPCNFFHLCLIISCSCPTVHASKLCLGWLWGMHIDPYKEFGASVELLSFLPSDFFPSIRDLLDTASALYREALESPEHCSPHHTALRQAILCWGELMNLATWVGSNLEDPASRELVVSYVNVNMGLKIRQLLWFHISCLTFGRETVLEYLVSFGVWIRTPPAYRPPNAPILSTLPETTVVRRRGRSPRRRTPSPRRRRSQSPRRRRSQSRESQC

Structure (SMILES)	inhibition
CC(=O)N[C@@H](CC(C)C)C(=O)N[C@@H](CCC(=O)O)C(=O)N[C@@H](CC(=O)O)C(=O)N1CCC[C@H]1C(=O)N[C@@H](C)C(=O)N[C@@H](CO)C(=O)N[C@@H](CCCNC(=N)N)C(=O)N[C@@H](CCC(=O)O)C(=O)N[C@@H](CC(C)C)C(=O)N[C@H](C(=O)N[C@H](C(=O)N[C@@H](CO)C(=O)N[C@@H](Cc1ccc(O)cc1)C(=O)N[C@H](C(=O)N[C@@H](CC(N)=O)C(N)=O)C(C)C)C(C)C)C(C)C	inactive
CC(=O)N[C@@H](Cc1c[nH]c2ccccc12)C(=O)N[C@H](C(=O)NCC(=O)N[C@@H](CO)C(=O)N[C@@H](CC(N)=O)C(=O)N[C@@H](CC(C)C)C(=O)N[C@@H](CCC(=O)O)C(=O)N[C@@H](CC(=O)O)C(=O)N1CCC[C@H]1C(=O)N[C@@H](C)C(=O)N[C@@H](CO)C(=O)N[C@@H](CCCNC(=N)N)C(=O)N[C@@H](CCC(=O)O)C(=O)N[C@@H](CC(C)C)C(=O)N[C@H](C(N)=O)C(C)C)C(C)C	inactive
CC[C@H](C)[C@H](NC(=O)[C@H](C)NC(=O)[C@H](CCC(N)=O)NC(=O)[C@@H]1CCCN1C(C)=O)C(=O)N[C@@H](CC(C)C)C(=O)N[C@@H](CS)C(=O)N[C@@H](Cc1c[nH]c2ccccc12)C(=O)NCC(=O)N[C@@H](CCC(=O)O)C(=O)N[C@@H](CC(C)C)C(=O)N[C@@H](CCSC)C(=O)N[C@@H](CC(N)=O)C(=O)N[C@@H](CC(C)C)C(=O)N[C@@H](C)C(=O)N[C@H](C(N)=O)[C@@H](C)O	inactive
CC[C@H](C)[C@H](NC(=O)[C@H](CO)NC(C)=O)C(=O)N[C@@H](CCCNC(=N)N)C(=O)N[C@@H](CC(=O)O)C(=O)N[C@@H](CC(C)C)C(=O)N[C@@H](CC(C)C)C(=O)N[C@@H](CC(=O)O)C(=O)N[C@H](C(=O)N[C@@H](C)C(=O)N[C@@H](CO)C(=O)N[C@@H](C)C(=O)N[C@@H](CC(C)C)C(=O)N[C@@H](Cc1ccc(O)cc1)C(=O)N[C@@H](CCCNC(=N)N)C(=O)N[C@@H](CCC(=O)O)C(N)=O)[C@@H](C)O	inactive
CC[C@H](C)[C@H](NC(=O)[C@H](Cc1c[nH]c2ccccc12)NC(=O)[C@@H](NC(=O)CNC(=O)[C@H](Cc1ccccc1)NC(=O)[C@H](CO)NC(C)=O)C(C)C)C(=O)N[C@@H](CCCNC(=N)N)C(=O)N[C@H](C(=O)N1CCC[C@H]1C(=O)N1CCC[C@H]1C(=O)N[C@@H](C)C(=O)N[C@@H](Cc1ccc(O)cc1)C(=O)N[C@@H](CCCNC(=N)N)C(=O)N1CCC[C@H]1C(=O)N1CCC[C@H]1C(N)=O)[C@@H](C)O	inactive
CSCC[C@H](NC(=O)[C@H](CC(C)C)NC(=O)[C@H](CCC(=O)O)NC(=O)CNC(=O)[C@H](Cc1c[nH]c2ccccc12)NC(=O)[C@H](CS)NC(C)=O)C(=O)N[C@@H](CC(N)=O)C(=O)N[C@@H](CC(C)C)C(=O)N[C@@H](C)C(=O)N[C@H](C(=O)N[C@@H](Cc1c[nH]c2ccccc12)C(=O)N[C@H](C(=O)NCC(=O)N[C@@H](CO)C(=O)N[C@@H](CC(N)=O)C(N)=O)C(C)C)[C@@H](C)O	inactive
CSCC[C@H](NC(=O)[C@H](CC(N)=O)NC(=O)[C@@H](NC(=O)[C@H](CC(N)=O)NC(=O)[C@@H](NC(=O)[C@H](Cc1ccc(O)cc1)NC(=O)[C@H](CO)NC(=O)[C@@H](NC(=O)[C@@H](NC(=O)[C@H](CC(C)C)NC(=O)[C@H](CCC(=O)O)NC(=O)[C@H](CCCNC(=N)N)NC(=O)[C@H](CO)NC(C)=O)C(C)C)C(C)C)C(C)C)C(C)C)C(=O)NCC(=O)N[C@@H](CC(C)C)C(N)=O	inactive
CSCC[C@H](NC(C)=O)C(=O)N[C@@H](CC(N)=O)C(=O)N[C@@H](CC(C)C)C(=O)N[C@@H](C)C(=O)N[C@H](C(=O)N[C@@H](Cc1c[nH]c2ccccc12)C(=O)N[C@H](C(=O)NCC(=O)N[C@@H](CO)C(=O)N[C@@H](CC(N)=O)C(=O)N[C@@H](CC(C)C)C(=O)N[C@@H](CCC(=O)O)C(=O)N[C@@H](CC(=O)O)C(=O)N1CCC[C@H]1C(=O)N[C@@H](C)C(N)=O)C(C)C)[C@@H](C)O	inactive
